Measured values published in the supplement of paper PMC10307832.

Legend:
Experiment in all cases: relative viability (nuclei count vs DMSO), 5 days (fraction); higher = more cells survive
[1] = compound: CC(=O)c1c(C)c2cnc(Nc3ccc(N4CCNCC4)cn3)nc2n(C2CCCC2)c1=O [Palbociclib] + N=C(N)NC(=N)NCCc1ccccc1 [Phenformin] (partner 250 µM)
How it was run: (§1)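 For relative viability, nuclei counts in treated wells were divided by those in vehicle wells. Lung cancer cell lines had been pin-tool dosed in 1536-well plates the day after seeding and cultured for 5 days, then fixed and stained in one step (final 0.05% Triton X-100, 1% formaldehyde, 1 ug/ml Hoechst) and imaged at 4×. Doses were one drug alone or a fixed anchor-drug dose plus five library-drug doses (not always all listed) in √10 steps, and values are duplicate-plate medians.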

[2] = compound: CC(=O)c1c(C)c2cnc(Nc3ccc(N4CCNCC4)cn3)nc2n(C2CCCC2)c1=O [Palbociclib] + Cc1nc(NC(=O)N2CCC[C@H]2C(N)=O)sc1-c1ccnc(C(C)(C)C(F)(F)F)c1 [Alpelisib] (partner 2 µM)
How it was run: as §1

[3] = compound: CC(=O)c1c(C)c2cnc(Nc3ccc(N4CCNCC4)cn3)nc2n(C2CCCC2)c1=O [Palbociclib] + COc1cc2c(Oc3ccc(NC(=O)C4(C(=O)Nc5ccc(F)cc5)CC4)cc3F)ccnc2cc1OCCCN1CCOCC1 [Foretinib] (partner 0.25 µM)
How it was run: as §1

[4] = compound: CC(=O)c1c(C)c2cnc(Nc3ccc(N4CCNCC4)cn3)nc2n(C2CCCC2)c1=O [Palbociclib] + CC(C)C[C@H](NC(=O)[C@H](Cc1ccccc1)NC(=O)c1cnccn1)B(O)O [Bortezomib] (partner 0.002 µM)
How it was run: as §1

[5] = compound: CC(=O)c1c(C)c2cnc(Nc3ccc(N4CCNCC4)cn3)nc2n(C2CCCC2)c1=O [Palbociclib] + C[C@]1(O)C[C@@H](c2nc(-c3ccc4ccc(-c5ccccc5)nc4c3)c3c(N)nccn32)C1 [Linsitinib] (partner 1 µM)
How it was run: as §1

[6] = compound: CC(=O)c1c(C)c2cnc(Nc3ccc(N4CCNCC4)cn3)nc2n(C2CCCC2)c1=O [Palbociclib] + COc1cccc2cc(-c3nc([C@H]4CC[C@H](C(=O)O)CC4)n4ncnc(N)c34)[nH]c12 [OSI-027] (partner 0.5 µM)
How it was run: as §1

[7] = compound: CC(=O)c1c(C)c2cnc(Nc3ccc(N4CCNCC4)cn3)nc2n(C2CCCC2)c1=O [Palbociclib] + Nc1nc2[nH]cc(CCc3ccc(C(=O)N[C@@H](CCC(=O)O)C(=O)O)cc3)c2c(=O)[nH]1 [Pemetrexed] (partner 0.2 µM)
How it was run: as §1

[8] = compound: CC(=O)c1c(C)c2cnc(Nc3ccc(N4CCNCC4)cn3)nc2n(C2CCCC2)c1=O [Palbociclib] + CS(=O)(=O)N1CCN(Cc2cc3nc(-c4cccc5[nH]ncc45)nc(N4CCOCC4)c3s2)CC1 [Pictilisib] (partner 1 µM)
How it was run: as §1

[9] = compound: CC(=O)c1c(C)c2cnc(Nc3ccc(N4CCNCC4)cn3)nc2n(C2CCCC2)c1=O [Palbociclib] + CCNC(=O)c1noc(-c2cc(C(C)C)c(O)cc2O)c1-c1ccc(CN2CCOCC2)cc1 [Luminespib] (partner 0.01 µM)
How it was run: as §1

[10] = compound: CC(=O)c1c(C)c2cnc(Nc3ccc(N4CCNCC4)cn3)nc2n(C2CCCC2)c1=O [Palbociclib] + Cc1nc(Nc2ncc(C(=O)Nc3c(C)cccc3Cl)s2)cc(N2CCN(CCO)CC2)n1 [Dasatinib] (partner 0.075 µM)
How it was run: as §1

[11] = compound: CC(=O)c1c(C)c2cnc(Nc3ccc(N4CCNCC4)cn3)nc2n(C2CCCC2)c1=O [Palbociclib] + C[C@@H](Oc1cc(-c2cnn(C3CCNCC3)c2)cnc1N)c1c(Cl)ccc(F)c1Cl [Crizotinib] (partner 1 µM)
How it was run: as §1

[12] = compound: CC(=O)c1c(C)c2cnc(Nc3ccc(N4CCNCC4)cn3)nc2n(C2CCCC2)c1=O [Palbociclib] + CS(=O)(=O)CCNCc1ccc(-c2ccc3ncnc(Nc4ccc(OCc5cccc(F)c5)c(Cl)c4)c3c2)o1 [Lapatinib] (partner 2 µM)
How it was run: as §1

[13] = compound: CC(=O)c1c(C)c2cnc(Nc3ccc(N4CCNCC4)cn3)nc2n(C2CCCC2)c1=O [Palbociclib]
How it was run: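 Cells of lung cancer lines were placed in 1536-well plates and kept overnight at 37 °C. Pinning then delivered five library-drug doses (not always all listed), spaced by √10, onto plates anchored with vehicle, and the cells were left 5 days without changing medium. One step fixed, permeabilised and stained them with Hoechst, and MetaXpress counted nuclei in 4× images. Viability, as a median over plates, is treated-well nuclei divided by vehicle-well nuclei, with acceptance only at control CV below 25% and at least one doubling.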

NCI-H1563
relative viability ([1]; first compound 0.01 µM): 0.709 | relative viability ([1]; first compound 0.03162 µM): 0.636 | relative viability ([1]; first compound 0.1 µM): 0.639 | relative viability ([1]; first compound 0.3162 µM): 0.654 | relative viability ([1]; first compound 1 µM): 0.537 | relative viability ([2]; first compound 0.01 µM): 0.896 | relative viability ([2]; first compound 0.03162 µM): 0.887 | relative viability ([2]; first compound 0.1 µM): 0.897 | relative viability ([2]; first compound 0.3162 µM): 0.808 | relative viability ([2]; first compound 1 µM): 0.765 | relative viability ([3]; first compound 0.01 µM): 0.972 | relative viability ([3]; first compound 0.03162 µM): 0.89 | relative viability ([3]; first compound 0.1 µM): 0.821 | relative viability ([3]; first compound 0.3162 µM): 0.853 | relative viability ([3]; first compound 1 µM): 0.8 | relative viability ([4]; first compound 0.01 µM): 0.824 | relative viability ([4]; first compound 0.03162 µM): 0.98 | relative viability ([4]; first compound 0.1 µM): 0.869 | relative viability ([4]; first compound 0.3162 µM): 0.796 | relative viability ([4]; first compound 1 µM): 0.577 | relative viability ([5]; first compound 0.01 µM): 1.19 | relative viability ([5]; first compound 0.03162 µM): 1.25 | relative viability ([5]; first compound 0.1 µM): 1.15 | relative viability ([5]; first compound 0.3162 µM): 1 | relative viability ([5]; first compound 1 µM): 0.887 | relative viability ([6]; first compound 0.01 µM): 0.75 | relative viability ([6]; first compound 0.03162 µM): 0.776 | relative viability ([6]; first compound 0.1 µM): 0.74 | relative viability ([6]; first compound 0.3162 µM): 0.735 | relative viability ([6]; first compound 1 µM): 0.534 | relative viability ([7]; first compound 0.01 µM): 0.836 | relative viability ([7]; first compound 0.03162 µM): 0.729 | relative viability ([7]; first compound 0.1 µM): 0.746 | relative viability ([7]; first compound 0.3162 µM): 0.795 | relative viability ([7]; first compound 1 µM): 0.629 | relative viability ([8]; first compound 0.01 µM): 0.668 | relative viability ([8]; first compound 0.03162 µM): 0.614 | relative viability ([8]; first compound 0.1 µM): 0.555 | relative viability ([8]; first compound 0.3162 µM): 0.618 | relative viability ([8]; first compound 1 µM): 0.613 | relative viability ([9]; first compound 0.01 µM): 0.479 | relative viability ([9]; first compound 0.03162 µM): 0.444 | relative viability ([9]; first compound 0.1 µM): 0.432 | relative viability ([9]; first compound 0.3162 µM): 0.577 | relative viability ([9]; first compound 1 µM): 0.489 | relative viability ([10]; first compound 0.01 µM): 0.456 | relative viability ([10]; first compound 0.03162 µM): 0.44 | relative viability ([10]; first compound 0.1 µM): 0.484 | relative viability ([10]; first compound 0.3162 µM): 0.471 | relative viability ([10]; first compound 1 µM): 0.429 | relative viability ([11]; first compound 0.01 µM): 0.852 | relative viability ([11]; first compound 0.03162 µM): 0.832 | relative viability ([11]; first compound 0.1 µM): 0.813 | relative viability ([11]; first compound 0.3162 µM): 0.759 | relative viability ([11]; first compound 1 µM): 0.67 | relative viability ([12]; first compound 0.01 µM): 0.952 | relative viability ([12]; first compound 0.03162 µM): 0.852 | relative viability ([12]; first compound 0.1 µM): 0.955 | relative viability ([12]; first compound 0.3162 µM): 0.844 | relative viability ([12]; first compound 1 µM): 0.759 | relative viability ([13]; 0.01 µM): 0.988 | relative viability ([13]; 0.03162 µM): 0.896 | relative viability ([13]; 0.1 µM): 0.85 | relative viability ([13]; 0.3162 µM): 0.869 | relative viability ([13]; 1 µM): 0.853
